Assay results reported in patent US11331290B2, “Niclosamide for the treatment of cancer metastasis” (Max-Delbrück-Centrum für Molekulare Medizin in der …, priority 2011, dated 2022).

Columns and labels:
[1] = tested on: LS174T cells; assay: Boyden chamber invasion assay (Matrigel); assay type: cell-based, human; settings: 1 μM, 24 h
Experimental: (§1) HCT116, SW620, LS174T, SW480 and DLD-1 cells were used in cell migration and invasion analysis performed with Boyden chamber assay. 400 μL containing 2.5×10^5 cells were seeded into each transwell chamber with filter membranes of 12.0 μm pore size (Millipore, Schwalbach, Germany). For invasion filter membranes were coated with 50 μL Matrigel (diluted 1:3 in RPMI-1640; BD Biosciences) 10 minutes before cells were seeded. Fresh medium (600 μL) were added to the bottom chamber and cells were allowed to attach to the insets for 15 hours. Both chambers were treated with 1 μM niclosamide or the respective amount of DMSO and incubated at 37° C. and 5% CO2 in a humidified incubator for 24 hours. Afterwards insets were removed and cells that had migrated through the membrane to the lower chamber were trypsinized and counted in a Neubauer chamber (LO-Laboroptik, Bad Homburg, Germany). Each well was counted ten times. Each migration or invasion experiment was performed in duplicate. The average number of migrated or invaded cells was determined for at least three independent experiments.
(§2) (A) S100A4 expression under niclosamide treatment. Cells were treated with 1 μM niclosamide for 24 hours. S100A4 expression was analyzed with qRT-PCR and immunoblot. (B) Cell migration under niclosamide treatment. Migration rates of cells treated with 1 μM niclosamide for 24 hours were determined in a Boyden chamber assay values were normalized to solvent-treated SW620 cells. (C) Cell invasion under niclosamide treatment. Cells were seeded onto Matrigel covered transwells and treated with 1 μM niclosamide for 24 hours. Invaded cells in the lower chamber were counted and normalized to solvent-treated SW620 cells. Differences in solvent vs. niclosamide-treated cells were analyzed by Student's t test. Data represent mean±SE of at least two independent experiments each performed in triplicate. (D) Directed migration under niclosamide treatment. Wounds of 300 μM width were set in a 60% confluent monolayer of cells on day 1. Cells were treated daily with 1 μM niclosamide for 4 days. Microphotographs of day 4 are presented here with black lines indicating margins of the wound on day 1; scale bar represents 200 μM. Directed migration data shown are representatives of three independent experiments. (E) Adhesive cell proliferation under niclosamide treatment. Cells were treated daily with 1 μM niclosamide. The amount of viable cells per well was determined by MTT assay. (F) Anchorage-independent cell growth under niclosamide treatment. Cells were plated as single cells into 0.33% (w/v) agarose and treatment (solvent or 1 μM niclosamide) containing medium. After 7 days colonies were visualized by light microscopy at 10× (overview) and 40× (single colony) magnification. (G) Quantification of colonies formed. Number of colonies (of more than 4 cells) was counted and normalized to solvent-treated SW620 cells. Differences in solvent vs. niclosamide-treated cells were analyzed by Student's t test. Data represent mean mean±SE of at least two independent experiments each performed in duplicates.

[2] = tested on: SW620 cells; assay: Boyden chamber invasion assay (Matrigel); assay type: cell-based, human; settings: 1 μM, 24 h
Experimental: as §1, §2

[3] = tested on: DLD-1 cells; assay: Boyden chamber invasion assay (Matrigel); assay type: cell-based, human; settings: 1 μM, 24 h
Experimental: as §1, §2

[4] = tested on: SW480 cells; assay: Boyden chamber invasion assay (Matrigel); assay type: cell-based, human; settings: 1 μM, 24 h
Experimental: as §1, §2

[5] = tested on: LS174T cells; assay: Soft agar colony formation assay; assay type: cell-based, human; settings: 1 μM, 7 days
Experimental: (§3) Analysis of anchorage-independent cell proliferation was achieved by soft agar colony formation assay. A bottom layer containing 0.5% w/v agarose, RPMI-1640 medium, 10% FBS and 1 μM niclosamide or the respective amount of DMSO was added to a 6 cm Ø dish and incubated at room temperature under sterile conditions for 10 minutes. Onto the solidified bottom layer a top layer was added containing 8×10^3 cells, 0.33% w/v agarose, RPMI-1640 medium, 10% FBS and 1 μM niclosamide or the respective amount of DMSO. Cells were seeded as single cells into the soft agar and incubated in a humidified incubator at 37° C. and 5% CO2 for 7 days. Colony formation was visualized by 10× magnification for an overview and 40× magnification for single colonies in the Leica DM IL light microscope (Leica Microsystems). Colony quantification was achieved by counting cell colonies of more than 4 cells in 10 squares of […]. Colony formation experiments were repeated twice, each in triplicates.
as §2

[6] = tested on: SW620 cells; assay: Soft agar colony formation assay; assay type: cell-based, human; settings: 1 μM, 7 days
Experimental: as §3, §2

[7] = tested on: DLD-1 cells; assay: Soft agar colony formation assay; assay type: cell-based, human; settings: 1 μM, 7 days
Experimental: as §3, §2

[8] = tested on: SW480 cells; assay: Soft agar colony formation assay; assay type: cell-based, human; settings: 1 μM, 7 days
Experimental: as §3, §2

[9] = tested on: HCT116 cells; assay: Cytotoxicity (cell viability) of niclosamide; assay type: cell-based; settings: Homo sapiens, HCT-116, 24 h, 95% CI 1.87 to 2.92 μM
Experimental: To determine an applicable niclosamide concentration, the cytotoxicity of niclosamide on HCT116 cells was analyzed. […] No change in S100A4 expression could be detected with concentrations below 1 μM niclosamide.
All calculations and statistical analyses were performed with GraphPad Prism version 4.01. Student t test was used for comparison of only two groups. One-way analysis of variance (ANOVA) was applied for comparing the control group with several treated groups followed by Bonferroni post hoc multiple comparisons. […] Kaplan-Meier analysis was used to plot overall survival and differences in curves were analyzed by Logrank test. […]
(A) Determination of the cytotoxicity of niclosamide on HCT116 cells. Cells were treated with increasing concentrations of niclosamide for 24 hours and cell viability was measured. […] S100A4 expression was determined by quantitative reverse-transcription-polymerase chain reaction (qRT-PCR) and immunoblot. […] HCT116 cells were treated with a single dose of 1 μM niclosamide for 24 hours and S100A4 expression was analyzed by qRT-PCR and immunoblot at indicated time points. […] HCT116 cells were treated daily with 1 μM niclosamide and S100A4 expression was analyzed by qRT-PCR and immunoblot. […]

## O=C(Nc1ccc([N+](=O)[O-])cc1Cl)c1cc(Cl)ccc1O [niclosamide, 2′,5-dichloro-4′-nitrosalicylanilide]
[1]
  invasion, mean difference control vs niclosamide: 39.5%
[1]; solvent control 63.2%
  cell invasion, mean % (normalized to solvent-treated SW620 cells): 23.6%
[2]
  invasion, mean difference control vs niclosamide: 74.9%
[2]; solvent control 100.0%
  cell invasion, mean % (normalized to solvent-treated SW620 cells): 25.1%
[3]
  invasion rate: not affected
[4]
  invasion, mean difference control vs niclosamide: 34.9%
[4]; solvent control 47.7%
  cell invasion, mean % (normalized to solvent-treated SW620 cells): 12.8%
[5]
  anchorage-independent growth, colony size: clearly smaller cell colonies
  number of colonies, mean difference control vs niclosamide: 74.6%
[5]; solvent control 90.6%
  number of colonies, mean % (normalized to solvent-treated SW620 cells): 15.9%
[6]
  anchorage-independent growth, colony size: clearly smaller cell colonies
  number of colonies, mean difference control vs niclosamide: 96.4%
[6]; solvent control 100.0%
  number of colonies, mean % (normalized to solvent-treated SW620 cells): 3.6%
[7]
  anchorage-independent growth, colony size: clearly smaller cell colonies
  number of colonies, mean difference control vs niclosamide: 72.5%
[7]; solvent control 82.6%
  number of colonies, mean % (normalized to solvent-treated SW620 cells): 10.1%
[8]
  anchorage-independent growth, colony size: clearly smaller cell colonies
  number of colonies, mean difference control vs niclosamide: 63.8%
[8]; solvent control 68.1%
  number of colonies, mean % (normalized to solvent-treated SW620 cells): 4.3%
[9]
  EC50: 2.2 µM
